From US20130190263A1 (LABORATORIO DE DIAGNOSTICO GAM, S.A., priority 2010, published 2013)
Values after ≈ are worked out from the molar mass of the structure shown.

Tests used:
ISA virus [1] = experiment: Inhibition assay of the replicative cycle of ISAV in SHK-1 cells (real-time RT-PCR of supernatant); type: cell-based
RNA viruses = settings: in general, in vitro; read-out: EC50 values (effective concentration 50%); cited from earlier work
ISA virus [2] = experiment: Example 1: hematocrit of ISAV-infected treated fish; type: in vivo, Salmo salar; settings: live fish
SHK-1 cells [3] = settings: Atlantic salmon, 3 days
[4] = Example 1: toxicity in healthy uninfected fish given the highest dose (tank C2)
SHK-1 cells [5] = experiment: Cytotoxicity: cell viability of SHK-1 cells (propidium iodide cytometry); settings: relative to effective concentration
ISA virus [6] = experiment: Example 1: determination of viral load in heart samples (real-time RT-PCR, TCID50); settings: for viral load in infected fish (intraperitoneal): FIG. 9
[7] = Degradation when autoclaved at 121° C., 15 psi, 25% relative humidity; type: physicochemical
cell cultures = settings: cited from earlier work
[8] = tested on: VHSV virus (Viral Hemorrhagic Septicemia Virus); settings: EPC cells, cited from earlier work
ISA virus [9] = experiment: Example 1: necropsies analysis of infected treated fish; type: in vivo, Salmo salar; settings: infected fish of tanks T1 and T2; FIGS. 14 and 15
Source text: The necropsy of the fish in the assay of controlled environment was made through external and internal clinical analysis, with registration of morphometric parameters, description and registration of pathological features (necropsy itself), sampling of internal organs (heart, kidney, spleen and gills) in ethanol and RNA later, with counter samples (i.e. duplication of the samples of the organs same), along with the sample of muscle locket with skin to be used afterwards in analysis of deficiency (presence of the Antiviral in the muscle).
The fish were subjected to necropsy process mostly within 24 hours post sampling.
At the end of the assay all fish were euthanized and necropsied.

IPNV = settings: solution in the tank, exposure once during two hours; cited from earlier work
[10] = 48 hours

For O=C(O)C1=C[C@@H](O)[C@@H](O)[C@H](O)C1 [shikimic acid], the viral replication inhibition (ISA virus [1]; up to concentrations of 300 μg/ml, FIG. 2) was “no viral replication inhibition”.

For CCOC(=O)C1=C[C@@H](OC(CC)CC)[C@H](NC(C)=O)[C@@H](N)C1 [oseltamivir], the “inhibition of the replication of ISA virus” value (ISA virus [1]; concentrations as high as 300 μg/mL, SHK-1 cells, 3 days post-infection, FIG. 1) was “no more than 60%”.

For NC(=O)c1ncn([C@@H]2O[C@H](CO)[C@@H](O)[C@H]2O)n1 [ribavirin, 1-beta-D-ribofuranosyl-1H-1,2,4-triazole-3-carboxamide], the EC50 (RNA viruses) is given as at least 1 µM, the hematocrit (ISA virus [2]; tank T1, infected, dose of 800 μg/mL) is given as about 45% and the hematocrit (ISA virus [2]; tank T2, infected, dose of 400 μg/mL) is given as about 45%. For the same compound, the “concentration that produces 50% of cell toxicity (CC50)” value (SHK-1 cells [3]) was over 400000 µg/mL, the signs of anemia ([4]; healthy fish receiving a high dose (C2)) was “no signs of developing anemia” and the hematocrit ([4]; tank C2, healthy, dose of 1600 μg/mL) was 54%. The “no cytotoxicity in concentrations times higher than the actual” value (SHK-1 cells [5]) was “up to 10^7 times”, the “viral load in dead fish” value (ISA virus [6]; highest dose (T1) compared with T2 and C3, FIG. 8) was “significantly lower” and the “viral load in infected fish (intraperitoneal)” value (ISA virus [6]; highest dose (T1)) was “lower”. The “viral load in infected fish (intraperitoneal)” value (ISA virus [6]; lowest dose (T2) versus untreated (C3)) was “practically the same”, the “average viral load (total)” value (ISA virus [6]; tanks T1 and T2 versus C3, FIG. 6) was “smaller than the uninfected fish” and the “% Antiviral” value ([7]; 5 minutes in autoclave) was 97.2%. For the same compound, the “% Antiviral” value ([7]; 10 minutes in autoclave) was 91.9%, the “% Antiviral” value ([7]; 20 minutes drying + 30 minutes in autoclave) was 99.5% and the “% Antiviral” value ([7]; 30 minutes in autoclave) was 90.3%. The CC50 (cell cultures) was 100 µg/mL (≈ 409 µM), the RNA inhibition ([8]; 25 μg/ml added at 0 hours post infection, at 10 hours post infection) was 99.8% and the “inhibition of the virus” value ([8]; concentrations of 5, 10 and 25 μg/ml) was “strong inhibition”. The necropsy findings (ISA virus [9]) was “mild inflammatory signs”, the “decreased rate of dead fish” value (IPNV) was “about 5%” and the “stability of the aqueous solution” value [10] was at most 48 h. For the same compound, the EC50 (ISA virus [1]; 72 h, read-out: concentration which inhibits 50% of ISA virus replication (EC50)) was about 0.4 µg/mL (≈ 1.64 µM).
